Among the data in ChEMBL document CHEMBL3217551, “A concise synthesis of the potent inflammatory mediator 5-oxo-ETE” (Medchemcomm, 2012) are Stability and EC50 values, retold here.

Data set [1] is described as follows: Stability of the compound after 48 hrs by NMR spectroscopy. It counts as physicochemical.
Data set [2] can be described thus: Stability of the compound at room temperature after 19 days by NMR spectroscopy in presence of CDCl3. It counts as ADME. As to conditions: 456 h.
The nature of data set [3]: Stability of the compound after 36 hrs by NMR spectroscopy. It counts as physicochemical.
Data set [4] in a line: Stability of the compound in DMSO-d6 at room temperature after 4 to 21 days by NMR spectroscopy in presence of CDCl3. It counts as ADME.
Data set [5] concerns the target Oxoeicosanoid receptor 1 (Homo sapiens, UniProt Q8TDS5). The data set can be described thus: Agonist activity at OXE receptor (unknown origin) expressed in HEK293 cells co-expressing Galpha subunit G16 assessed as calcium mobilization using Oregon Green 488 BAPTA-1/AM by fluorescence assay. It is filed as functional, cell-based. A general note: A change in cytosolic calcium serves as a functional read-out for many receptors and channels.

Chain of Oxoeicosanoid receptor 1 (Q8TDS5 whole entry): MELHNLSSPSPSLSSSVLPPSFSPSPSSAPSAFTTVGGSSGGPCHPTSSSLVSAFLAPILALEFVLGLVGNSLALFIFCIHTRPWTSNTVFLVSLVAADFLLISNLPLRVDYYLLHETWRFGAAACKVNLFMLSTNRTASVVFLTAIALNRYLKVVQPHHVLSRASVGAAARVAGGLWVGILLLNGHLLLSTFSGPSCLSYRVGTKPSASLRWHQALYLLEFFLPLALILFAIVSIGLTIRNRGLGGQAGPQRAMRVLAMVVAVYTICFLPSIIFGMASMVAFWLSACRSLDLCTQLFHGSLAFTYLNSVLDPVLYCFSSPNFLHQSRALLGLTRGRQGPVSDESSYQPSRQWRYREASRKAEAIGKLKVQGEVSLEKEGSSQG

With `CCCCC/C=C\C/C=C\C/C=C\C=C\C(=O)CCCC(=O)O` [5-OXO-ETE], the Stability result was “Unstable” in data set [1], “Stable” in data set [2], “Stable” in data set [3] and “Stable” in data set [4]. In data set [5], the 50% effective concentration (EC50) is 0.067 µM.

A word on the EC50: it is the midpoint of the concentration-response curve.
